Test results as given in the supplement of paper PMC10307832.

Tests used:
Assay in all cases: relative viability (nuclei count vs DMSO), 5 days (fraction); higher = more cells survive
AZD5582 + Vorinostat = compound: C[C@@H](C(=O)N[C@@H](C1CCCCC1)C(=O)N2CCC[C@H]2C(=O)N[C@@H]3[C@@H](CC4=CC=CC=C34)OCC#CC#CCO[C@@H]5CC6=CC=CC=C6[C@@H]5NC(=O)[C@@H]7CCCN7C(=O)[C@H](C8CCCCC8)NC(=O)[C@H](C)NC)NC [AZD5582] + O=C(CCCCCCC(=O)Nc1ccccc1)NO [Vorinostat] (partner 1 µM)
Outline: (§1)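 Lung cancer cell lines in 1536-well plates got either a single drug or a fixed anchor-drug dose together with five library-drug doses (not always all listed) in √10 steps, by pin tool, on the day after seeding. Nuclei were counted after 5 days, and relative viability is the treated-to-vehicle ratio of nuclei counts. Values are medians of duplicate plates.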

Temozolomide + Dasatinib = compound: Cn1nnc2c(C(N)=O)ncn2c1=O [Temozolomide] + Cc1nc(Nc2ncc(C(=O)Nc3c(C)cccc3Cl)s2)cc(N2CCN(CCO)CC2)n1 [Dasatinib] (partner 0.075 µM)
Outline: as §1

[1] = compound: Cn1nnc2c(C(N)=O)ncn2c1=O [Temozolomide] + O=C(CCCCCCC(=O)Nc1ccccc1)NO [Vorinostat] (partner 1 µM)
Outline: as §1

[2] = compound: Cn1nnc2c(C(N)=O)ncn2c1=O [Temozolomide] + Nc1ncn([C@H]2C[C@H](O)[C@@H](CO)O2)c(=O)n1 [Decitabine] (partner 2 µM)
Outline: as §1

| Cell Line | relative viability (AZD5582 + Vorinostat; first compound 0.001581 µM) | relative viability (AZD5582 + Vorinostat; first compound 0.005 µM) | relative viability (AZD5582 + Vorinostat; first compound 0.01581 µM) | relative viability (AZD5582 + Vorinostat; first compound 0.05 µM) | relative viability (Temozolomide + Dasatinib; first compound 0.2 µM) | relative viability (Temozolomide + Dasatinib; first compound 0.6325 µM) | relative viability (Temozolomide + Dasatinib; first compound 2 µM) | relative viability (Temozolomide + Dasatinib; first compound 6.325 µM) | relative viability (Temozolomide + Dasatinib; first compound 20 µM) | relative viability ([1]; first compound 0.2 µM) | relative viability ([1]; first compound 0.6325 µM) | relative viability ([1]; first compound 2 µM) | relative viability ([1]; first compound 6.325 µM) | relative viability ([1]; first compound 20 µM) | relative viability ([2]; first compound 0.2 µM) | relative viability ([2]; first compound 0.6325 µM) | relative viability ([2]; first compound 2 µM) | relative viability ([2]; first compound 6.325 µM) | relative viability ([2]; first compound 20 µM) |
| --- | --- | --- | --- | --- | --- | --- | --- | --- | --- | --- | --- | --- | --- | --- | --- | --- | --- | --- | --- |
| CAL-12T | 0.533 | 0.703 | 0.644 | 0.754 | 0.444 | 0.455 | 0.427 | 0.381 | 0.346 | 0.889 | 0.881 | 0.885 | 0.781 | 0.628 | – | – | – | – | – |
| HCC-44 | 1.04 | 1.01 | 1.08 | 1.04 | – | – | – | – | – | 1.15 | 1.09 | 1.02 | 1.16 | 1.06 | 1.04 | 0.991 | 0.963 | 0.951 | 0.966 |
| A-427 | 0.816 | 0.862 | 0.885 | 0.904 | 0.736 | 0.669 | 0.762 | 0.525 | 0.356 | 0.883 | 0.896 | 0.837 | 0.685 | 0.569 | 0.565 | 0.538 | 0.459 | 0.443 | 0.396 |
| NCI-H1666 | 0.848 | 0.891 | 1.05 | 0.958 | 0.859 | 0.821 | 0.728 | 0.571 | 0.56 | 1.07 | 1 | 0.94 | 0.794 | 0.868 | 0.706 | 0.776 | 0.761 | 0.686 | 0.682 |
| HCC-78 | 0.414 | 0.493 | 0.438 | 0.366 | 0.363 | 0.456 | 0.418 | 0.391 | 0.365 | 0.372 | 0.433 | 0.429 | – | 0.431 | 0.743 | 0.679 | 0.763 | – | 0.614 |
| HCC-366 | 0.239 | 0.398 | 0.186 | 0.425 | 0.661 | 0.688 | 0.655 | 0.682 | 0.652 | 0.443 | 0.349 | 0.307 | 0.315 | 0.351 | 0.297 | 0.386 | 0.384 | 0.304 | 0.337 |
| EPLC-272H | – | – | 0.429 | 0.074 | 0.368 | 0.411 | 0.413 | 0.337 | 0.267 | 0.386 | 0.545 | 0.527 | 0.407 | 0.508 | 0.357 | 0.395 | 0.385 | 0.401 | 0.312 |
| NCI-H1755 | 0.775 | 0.863 | 0.688 | 0.88 | 0.439 | 0.418 | 0.427 | 0.395 | 0.473 | 0.863 | 0.763 | 0.604 | 0.627 | 0.638 | 0.749 | 0.732 | 0.676 | 0.63 | 0.573 |
| SK-MES-1 | 1.08 | 1.19 | 1.02 | 1.26 | 0.289 | 0.34 | 0.412 | 0.374 | 0.228 | 1.41 | 1.12 | 1.11 | 1.19 | 1.12 | 0.417 | 0.391 | 0.362 | 0.335 | 0.368 |
| NCI-H838 | 0.716 | 0.775 | 0.855 | 0.956 | 0.28 | 0.253 | 0.426 | 0.311 | 0.281 | 0.751 | 0.727 | 0.72 | 0.748 | 0.739 | 0.493 | 0.495 | 0.462 | 0.439 | 0.475 |
| NCI-H2170 | 0.683 | 0.834 | 0.787 | 0.91 | – | 0.677 | 0.655 | 0.503 | 0.259 | – | 0.763 | 0.631 | 0.461 | 0.288 | – | 0.511 | 0.45 | 0.383 | 0.268 |
| HCC-827 | 0.771 | 0.892 | 0.694 | 0.822 | 0.256 | 0.343 | 0.299 | 0.326 | 0.149 | 0.637 | 0.785 | 0.817 | 0.876 | 0.169 | 0.228 | 0.357 | 0.339 | 0.34 | 0.169 |
| NCI-H1793 | 0.767 | 0.927 | 0.565 | 0.587 | – | 0.407 | 0.378 | 0.28 | 0.352 | – | 0.847 | 0.758 | 0.692 | 0.503 | – | 0.54 | 0.624 | 0.36 | 0.424 |
| NCI-H441 | 0.723 | 0.708 | 0.889 | 0.921 | 0.656 | 0.621 | 0.682 | 0.608 | 0.724 | 0.986 | 0.885 | 0.773 | 0.703 | 0.691 | 0.255 | 0.279 | 0.226 | 0.278 | 0.254 |
| H3255 | 0.831 | 0.976 | 0.722 | 0.48 | – | 0.406 | 0.283 | 0.263 | 0.202 | – | 0.793 | 0.77 | 0.535 | 0.23 | – | 0.652 | 0.812 | 0.514 | 0.187 |
| ABC-1 | 1.22 | 1.57 | 0.934 | 1.08 | 0.621 | 0.558 | 0.607 | 0.49 | 0.586 | 1.48 | 0.771 | 0.907 | 1.21 | 1.08 | 0.931 | 0.878 | 1.59 | 0.94 | 1.24 |
| 201T | 1.05 | 1.11 | 0.919 | 1.22 | 0.584 | 0.523 | 0.539 | 0.57 | 0.565 | 0.942 | 0.939 | 1.04 | 0.91 | 0.867 | 0.832 | 0.877 | 0.866 | 0.821 | 0.843 |
| NCI-H596 | 0.506 | – | 0.629 | 0.527 | 0.601 | 0.697 | 0.614 | 0.461 | 0.564 | 0.683 | 0.652 | 0.58 | 0.585 | 0.689 | 1.13 | 1.07 | 1.03 | 1.02 | 0.905 |
